Structures can show the parent of a compound that is named as a salt.

A short description of the first assay: APCC in vivo screen: blood cholesterol in male Sprague-Dawley rats on high fat, high cholesterol diet with 0.5% cholic acid. Particulars: Rattus norvegicus, single dose 30 mg/kg, high fat high cholesterol diet overnight, read-out: % Change (mg/dl) (cholesterol). An excerpt:
In one in vivo screen designated APCC, male Sprague-Dawley rats (200 to 225 g) were randomly divided into treatment groups and dosed at 4 PM with either vehicle (CMC/Tween) or suspensions of compounds in vehicle. The normal chow diet was then replaced with a high fat, high cholesterol diet with 0.5% cholic acid. The rats consumed this diet ad libitum during the night and were sacrificed at 8 AM to obtain blood samples for cholesterol analysis using standard procedures. Statistical differences between mean cholesterol values for the same vehicle were determined using analysis of variance followed by Fisher's least significant test. The compounds were dosed at 30 mg/kg unless otherwise noted.
For the compound `CCCCCCCCN(C)S(=O)(=O)NC(=O)Oc1c(C(C)(C)C)cc(C)cc1C(C)(C)C` [Example 29, 2,6-Bis(1,1-dimethylethyl)-4-methylphenyl[(methyloctylamino)sulfonyl]carbamate], the change in vivo at 30 mg/kg is -55%.

For `CC(C)c1cccc(C(C)C)c1OC(=O)NS(=O)(=O)N1CCCC1` [Example 52, 2,6-Bis(1-methylethyl)-phenyl ester(1-pyrrolidinylsulfonyl)-carbamic acid], the change in vivo at 30 mg/kg was -53%. Consider `CCCCN(CCCC)S(=O)(=O)NC(=O)Oc1c(C(C)(C)C)cc(C)cc1C(C)(C)C` [Example 22, 2,6-Bis(1,1-dimethylethyl)-4-methylphenyl[(dibutylamino)sulfonyl]carbamate], for which the change in vivo at 30 mg/kg is -4%. Still for that read-out and setting: with `CCCCCCCCN(C)S(=O)(=O)NC(=O)Oc1c(C(C)C)cccc1C(C)C` [Example 40, 2,6-Bis(1-methylethyl)phenyl[(methyloctylamino)sulfonyl]carbamate] the figure was -60%; with `CCCCCN(CCCCC)S(=O)(=O)NC(=O)Oc1c(C(C)(C)C)cc(C)cc1C(C)(C)C` [Example 23, 2,6-Bis(1,1-dimethylethyl)-4-methylphenyl[(dipentylamino)sulfonyl]carbamat], -42%.

`CC(C)c1cccc(C(C)C)c1OC(=O)NS(=O)(=O)Nc1nc2ccccc2[nH]1` [Example 13, 2,6-Bis(1-methylethyl)phenyl[(1H-benzimidazol-2-ylamino)sulfonyl]carbamate]: the change in vivo at 30 mg/kg is 8%.

For `CCCCCCNS(=O)(=O)NC(=O)Oc1c(C(C)C)cccc1C(C)C` [Example 37, 2,6-Bis(1-methylethyl)phenyl[(hexylamino)sulfonyl]carbamate], the change in vivo at 30 mg/kg is -58%.

As to `CCCCCCN(CCCCCC)S(=O)(=O)NC(=O)Oc1c(C(C)C)cccc1C(C)C` [Example 41, 2,6-Bis(1-methylethyl)phenyl[(dihexylamino)sulfonyl]carbamate], the change in vivo at 30 mg/kg is -62%. The same measure, in the same setting: with `CC(C)c1cccc(C(C)C)c1OC(=O)NS(=O)(=O)N(C(C)C)C1CCCCC1` [Example 39, 2,6-Bis(1-methylethyl)phenyl[[cyclohexyl(1-methylethyl)amino]sulfonyl]carbamate] the figure was -60%; with `CCCCCCCCCCN(CCCCCCCCCC)S(=O)(=O)NC(=O)Oc1c(C(C)(C)C)cc(C)cc1C(C)(C)C` [Example 34], -4%. Regarding `Cc1cc(C(C)(C)C)c(OC(=O)NS(=O)(=O)N(CC2CCCO2)CC2CCCO2)c(C(C)(C)C)c1` (centres unmarked) [Example 30, 2,6-Bis(1,1-dimethylethyl)4-methylphenyl[[bis[(tetrahydro-2-furanyl)methyl]amino]sulfonyl]carbamate], the change in vivo at 30 mg/kg worked out at 2%.

For the compound `CC(C)c1cccc(C(C)C)c1OC(=O)NS(=O)(=O)N(C(C)C)C(C)C` [Example 35, 2,6-Bis(1-methylethyl)phenyl[[bis(1-methylethyl)amino]sulfonyl]carbamate], the change in vivo at 30 mg/kg was -76%. With `CCCCCN(CCCCC)S(=O)(=O)NC(=O)Oc1c(C(C)C)cccc1C(C)C` [Example 42, 2,6-Bis(1-methylethyl)phenyl[(dipentylamino)sulfonyl]carbamate], the change in vivo at 30 mg/kg was -74%. `CN(C(=O)Oc1c(C(C)(C)C)cccc1C(C)(C)C)S(=O)(=O)NC(c1ccccc1)c1ccccc1` [Example 58, 2,6-bis(1,1-dimethylethyl)phenyl[[(diphenylmethyl)amino]sulfonyl]methyl carbamate]: the change in vivo at 30 mg/kg came out at 4%.

`CC(C)c1cccc(C(C)C)c1OC(=O)NS(=O)(=O)N1CCc2ccccc21` [Example 54]: the change in vivo at 30 mg/kg was -77%.

`CCCCCCNS(=O)(=O)NC(=O)Oc1c(C(C)(C)C)cc(C)cc1C(C)(C)C` [Example 26, 2,6-Bis(1,1-dimethylethyl)-4-methylphenyl[(hexylamino)sulfonyl]carbamate]: the change in vivo at 30 mg/kg was -52%. Regarding `CCCCCCN(CCCCCC)S(=O)(=O)NC(=O)Oc1c(C(C)(C)C)cc(C)cc1C(C)(C)C` [Example 25, 2,6-Bis(1,1-dimethylethyl)-4-methylphenyl[(dihexylamino)sulfonyl]carbamate], the change in vivo at 30 mg/kg was -40%. Consider `CC(C)c1cccc(C(C)C)c1OC(=O)NS(=O)(=O)N(Cc1ccccc1)Cc1ccccc1` [Example 12, 2,6-Bis(1-methylethyl)phenyl[[bis(phenylmethyl)amino]sulfonyl]carbamate], for which the change in vivo at 30 mg/kg is -43%.

As to `Cc1cc(C(C)(C)C)c(OC(=O)NS(=O)(=O)N(C(C)C)C(C)C)c(C(C)(C)C)c1` [Example 24, 2,6-Bis(1,1-dimethylethyl)-4-methylphenyl[[bis(1-methylethyl)amino]sulfonyl]carbamate], the change in vivo at 30 mg/kg is -19%.

For the compound `CC(C)c1cccc(C(C)C)c1OC(=O)NS(=O)(=O)N(c1ccccc1)c1ccccc1` [Example 10, 2,6-bis(1-methylethyl)phenyl[(diphenylamino)sulfonyl]carbamate], the change in vivo at 30 mg/kg was -67%. In the case of `COc1cc(C(C)(C)C)c(OC(=O)NS(=O)(=O)Nc2c(C(C)C)cccc2C(C)C)c(C(C)(C)C)c1` [Example 4, 2,6-bis(1,1-dimethylethyl)-4-methoxy phenyl[[[2,6-bis(1-methylethyl)phenyl]amino]sulfonyl]carbamate], the change in vivo at 30 mg/kg was -77%. On to `CC(C)c1cccc(C(C)C)c1OC(=O)NS(=O)(=O)N(Cc1ccccc1)C(C)C` [Example 36], for which the change in vivo at 30 mg/kg was -70%. `CCCCCCCCN(CCCCCCCC)S(=O)(=O)NC(=O)Oc1c(C(C)(C)C)cc(C)cc1C(C)(C)C` [Example 31, 2,6-Bis(1,1-dimethylethyl)-4-methylphenyl[(dioctylamino)sulfonyl]carbamate]: the change in vivo at 30 mg/kg was found to be 0%.

The same assay, now with this note: Rattus norvegicus, single dose 50 mg/kg (*), high fat high cholesterol diet overnight, read-out: % Change (mg/dl) (cholesterol).
Consider `CC(C)c1cccc(C(C)C)c1NS(=O)(=O)NC(=O)Oc1c(C(C)(C)C)cccc1C(C)(C)C` [Example 6, 2,6-bis(1,1-dimethylethyl)phenyl[[[2,6-bis(1-methylethyl)phenyl]amino]sulfonyl]carbamate], for which the change in vivo at 50 mg/kg is -57%. Consider `Cc1cc(C(C)(C)C)c(OC(=O)NS(=O)(=O)NCC(c2ccccc2)c2ccccc2)c(C(C)(C)C)c1` [Example 20, 2,6-Bis(1,1-dimethylethyl)-4-methylphenyl[[(2,2-diphenylethyl)amino]sulfonyl]carbamate], for which the change in vivo at 50 mg/kg was -54%. Consider `Cc1cc(C(C)(C)C)c(OC(=O)NS(=O)(=O)Nc2ccccc2)c(C(C)(C)C)c1` [Example 21, 2,6-Bis(1,1-dimethylethyl)-4-methylphenyl[(phenylamino)sulfonyl]carbamate], for which the change in vivo at 50 mg/kg is -33%. In the case of `CC(C)c1cccc(C(C)C)c1OC(=O)NS(=O)(=O)NC(c1ccccc1)c1ccccc1` [Example 17, 2,6-Bis(1-methylethyl)phenyl[[(diphenylmethyl)amino]sulfonyl]carbamate], the change in vivo at 50 mg/kg was -46%. The same measure, in the same setting: with `Cc1cc(C(C)(C)C)c(OC(=O)NS(=O)(=O)Nc2c(C(C)C)cccc2C(C)C)c(C(C)(C)C)c1` [Example 19] the figure was -56%; with `CC(C)(C)c1cccc(C(C)(C)C)c1OC(=O)NS(=O)(=O)N(Cc1ccccc1)Cc1ccccc1` [Example 9], -3%; with `CC(C)c1cccc(C(C)C)c1OC(=O)NS(=O)(=O)NCC(c1ccccc1)c1ccccc1` [Example 15], -29%. `CC(C)(C)c1cccc(C(C)(C)C)c1OC(=O)NS(=O)(=O)NCC(c1ccccc1)c1ccccc1` [Example 7, 2,6-bis(1,1-dimethylethyl)phenyl[[(2,2-diphenylethyl)amino]sulfonyl]carbamate]: the change in vivo at 50 mg/kg is -32%. `Cc1cc(C(C)(C)C)c(OC(=O)NS(=O)(=O)NC(c2ccccc2)c2ccccc2)c(C(C)(C)C)c1` [Example 18, 2,6-Bis(1,1-dimethylethyl)-4-methylphenyl[[(diphenylmethyl)amino]sulfonyl]carbamate]: the change in vivo at 50 mg/kg is -42%. As for `CC(C)(C)c1cccc(C(C)(C)C)c1OC(=O)NS(=O)(=O)Nc1ccccc1` [Example 8, 2,6-bis(1,1-dimethylethyl)phenyl[(phenylamino)sulfonyl]carbamate], the change in vivo at 50 mg/kg is -26%. For `CC(C)c1cccc(C(C)C)c1OC(=O)NS(=O)(=O)Nc1ccccc1` [Example 14, 2,6-Bis(1-methylethyl)phenyl[(phenylamino)sulfonyl]carbamate], the change in vivo at 50 mg/kg is -55%. Same read-out and setting: with `CC(C)c1cccc(C(C)C)c1NS(=O)(=O)NC(=O)Oc1c(C(C)C)cccc1C(C)C` [Example 16, 2,6-Bis(1-methylethyl)phenyl[[[2,6-bis(1-methylethyl)phenyl]amino]sulfonyl]carbamate] the figure was -65%.

Staying with this assay, now noted: rat, single dose 30 mg/kg, high fat high cholesterol diet overnight, read-out: % Change (mg/dl) (cholesterol).
Regarding `CCCCCCCCCCCCOC(=O)NS(=O)(=O)Nc1c(OC)cc(OC)cc1OC` [Example 43, Dodecyl[[(2,4,6-trimethoxyphenyl)amino]sulfonyl]carbamate], the change in vivo at 30 mg/kg was -8%. On the same count and under the same terms, with `Cc1cc(C(C)(C)C)c(OC(=O)NS(=O)(=O)N(CCCN(C)C)CCCN(C)C)c(C(C)(C)C)c1` [Example 28, 2,6-Bis(1,1-dimethylethyl)-4-methylphenyl[[[bis-3-(di-methylamino)propyl]amino]sulfonyl]carbamate] the figure was -13%.

Staying with this assay, now noted: rat, single dose 30 mg/kg, high fat high cholesterol diet overnight, sodium salt, 30 mg/kg.
As for `Cc1cc(C(C)(C)C)c(OC(=O)NS(=O)(=O)N(C)CCc2ccccn2)c(C(C)(C)C)c1` [Example 33, 2,6-Bis(1,1-dimethylethyl)-4-methylphenyl[[[methyl 2-(2-pyridinyl)ethyl]amino]sulfonyl]carbamate, sodium salt], the “% Change (mg/dl) (cholesterol)” value is recorded as -22 % Change (mg/dl).
